Counter-ions that a name gives are not always drawn.
Compound	melting point
COc1ccc(CNc2nc(COCC(=O)O)nc3sc4c(c23)CCCC4)cc1Cl (as salt: salt) [Example 6, [4-(3-chloro-4-methoxybenzylamino)-5,6,7,8-tetrahydrobenzo[4,5]thieno-[2,3-d]pyrimidin-2-ylmethoxy]acetic acid]	136 to 137 °C
CCOC(=O)CSCc1nc(NCc2ccc(OC)c(Cl)c2)c2c3c(sc2n1)CCCC3 [Example 5, ethyl [4-(3-chloro-4-methoxybenzylamino)-5,6,7,8-tetrahydrobenzo[4,5]thieno-[2,3-d]pyrimidin-2-ylmethylsulfanyl]acetate]	158 to 160 °C
